The values that follow come from ChEMBL document CHEMBL3352655, “Synthesis and biological evaluation of norcantharidin derivatives as protein phosphatase-1 inhibitors” (Bioorg Med Chem Lett, 2015).

One data set deals with A549. The experiment in a line: Cytotoxicity against human A549 cells after 48 hrs by MTT assay. The data set is classed as functional, cell-based. The note with it: A549, 48 h.
The test system of data set [1] is HeLa. Put plainly: Cytotoxicity against human HeLa cells after 48 hrs by MTT assay. Format: functional, cell-based.
The next data set has as its system HepG2. Put plainly: Cytotoxicity against human HepG2 cells after 48 hrs by MTT assay. The data set is classed as functional, cell-based. The note with it: HepG2, 48 h.
Data set [2] can be described thus: Cytotoxicity against human WI38 cells after 48 hrs by MTT assay. The data set is classed as cell-based. The note with it: WI-38, 48 h.
A short description of data set [3]: Cytotoxicity against human HCT8 cells after 48 hrs by MTT assay. The note with it: HCT-8, 48 h. The data set is classed as functional, cell-based.
Data set [4] is described as follows: Partition coefficient, log P of the compound. The data set is classed as physicochemical. The note with it: octanol/water.
A short description of data set [5]: (§1) Inhibition of protein phosphatase-1 (unknown origin) using phosphopeptide (Lys-Arg-pThr-Ile-Arg) substrate incubated for 60 mins by colorimetric analysis based serine/threonine assay. Further details: species or system Homo sapiens.
For data set [6], the system named is HeLa. The experiment in a line: Inhibition of microtubule formation in human HeLa cells at 5 uM after 24 hrs by DAPI staining based immunofluorescence assay. The data set is classed as functional, cell-based.
In data set [7] the test system is HeLa. Put plainly: Induction of nuclear condensation in human HeLa cells at 5 uM after 24 hrs by DAPI staining based immunofluorescence assay. Format: functional, cell-based.
Data set [8] deals with HeLa. Put plainly: Induction of nuclear fragmentation in human HeLa cells at 5 uM after 24 hrs by DAPI staining based immunofluorescence assay. The data set is classed as functional, cell-based.
In data set [9] the test system is HeLa. The experiment in a line: Induction of cell shrinkage in human HeLa cells at 5 uM after 24 hrs by DAPI staining based immunofluorescence assay. The data set is classed as functional.
The species named for a further data set is Homo sapiens. The description is as §1.
The next data set concerns Calf thymus DNA. The experiment in a line: Binding affinity to calf thymus DNA assessed as reduction in fluorescence intensity of compound-DNA complex at 1 uM by fluorescence spectroscopy. The data set is classed as nucleic-acid assay. The note with it: Bos taurus.

Active and inactive are the calls of the source. The rule behind the calls is not given here.

Turning to `O=C(Nc1ccc(S(=O)(=O)NC2CC2)cc1)C1C(C(=O)O)[C@H]2CC[C@@H]1O2` (stereo not given in full), the IC50 with A549 turned out to be 34.3 µM; in the data set with HeLa [1], 20.9 µM; with HepG2, 26.2 µM; in data set [2], 52.1 µM; in [3] it was 28.3 µM. In addition, the logP in data set [4] was 0.2.
For `O=C1[C@@H]2[C@H](C(=O)N1c1ccc(S(=O)(=O)N3CCN(c4ccc(F)cc4)CC3)cc1)[C@@H]1CC[C@H]2O1`, the IC50 in the data set on A549 is 25.8 µM; with HeLa [1], 18.6 µM; in the data set with HepG2 it was 25.6 µM; in data set [2], 51.8 µM; in data set [5] it was 2.3 µM; in data set [3], 32.1 µM. The compound further had a logP in [4] of 1.4.
`O=C(Nc1ccc(S(=O)(=O)N2CCOCC2)cc1)C1C(C(=O)O)[C@H]2CC[C@@H]1O2` (stereo not given in full): the IC50 with A549 was found to be 24.2 µM; in the data set on HeLa [1] it was 17.2 µM; with HepG2, 19.3 µM; in data set [2], 48.8 µM; in [3], 31.3 µM. This compound also registered a logP in data set [4] of 0.4.
As to `O=C1[C@@H]2[C@H](C(=O)N1c1ccc(S(=O)(=O)N3CCOCC3)cc1)[C@@H]1CC[C@H]2O1`, the half-maximal inhibitory concentration (IC50) in the data set with A549 stood at 39.2 µM; in the data set on HeLa [1], 16.3 µM; in the data set with HepG2, 28.7 µM; in [2], 52.1 µM; in data set [3], 43.5 µM. The compound further registered a lipophilicity (logP) in data set [4] of 0.9.
As to `O=C(Nc1ccc(S(=O)(=O)NC2CCCC2)cc1)C1C(C(=O)O)[C@H]2CC[C@@H]1O2` (stereo not given in full), the IC50 worked out at 20.1 µM in the data set with A549; 17.6 µM in the data set on HeLa [1]; 22.3 µM with HepG2; 59 µM in data set [2]; 30.2 µM in data set [3]. In [4], this compound gave a log partition coefficient (logP) of 0.2.
Turning to `O=C1OC(=O)C2C3CCC(O3)C12` (stereo not given) [DEMETHYL-CANTHARIDIN], the IC50 with A549 worked out at 12.1 µM; with HeLa [1] it was 12.4 µM; in the data set with HepG2, 24.7 µM; in data set [2], 26.7 µM; in [5] it was 2.6 µM; in data set [3] it was 28.4 µM. This compound also registered a logP in data set [4] of 0.7.
Regarding `O=C(Nc1ccc(S(=O)(=O)N2CCN(c3ccc(F)cc3)CC2)cc1)C1C(C(=O)O)[C@H]2CC[C@@H]1O2` (single isomer, unassigned), the inhibition entry in the data set with HeLa [6] is “Active”. For the same compound, the outcome in the data set on HeLa [7], in the data set with HeLa [8], in the data set on HeLa [9] and in the data set with Calf thymus DNA was Active. For the same compound, the IC50 worked out at 18.4 µM in the data set on A549; 6.3 µM with HeLa [1]; 14.4 µM with HepG2; 50.2 µM in [2]; 0.2 µM in data set [5]; 16.6 µM in data set [3]. Further, the inhibition entry in the data set filed under Homo sapiens is “Dose-dependent effect”. Also, the logP in data set [4] stood at 0.6.
As for `O=C1[C@@H]2[C@H](C(=O)N1c1ccc(S(=O)(=O)NC3CCCC3)cc1)[C@@H]1CC[C@H]2O1`, the IC50 in the data set on A549 is 32.5 µM; with HeLa [1] it was 20.7 µM; in the data set on HepG2 it was 23.5 µM; in data set [2], 40.3 µM; in [3] it was 32.8 µM. The same compound returned a lipophilicity (logP) in data set [4] of 1.1.
For the compound `CCN1CCN(S(=O)(=O)c2ccc(NC(=O)C3C(C(=O)O)[C@H]4CC[C@@H]3O4)cc2)CC1` (stereo not given in full), the concentration for half-maximal inhibition (IC50) in the data set on A549 came to 28.4 µM; in the data set on HeLa [1], 15.7 µM; with HepG2, 20.2 µM; in [2], 73.1 µM; in [3] it was 27.4 µM. In [4], this compound returned a log partition coefficient (logP) of 0.4.
Take `CCOC(=O)Cc1csc(NC(=O)C2C(C(=O)O)[C@H]3CC[C@@H]2O3)n1` (stereo not given in full): the IC50 (in the data set on A549; in the data set with HeLa [1]; in the data set with HepG2; in data set [2]; in data set [3]) was > 100 µM each time. The compound also came in with a logP in data set [4] of 0.8.
Turning to `O=C(Nc1ccc(S(=O)(=O)NC2CCCCC2)cc1)C1C(C(=O)O)[C@H]2CC[C@@H]1O2` (stereo not given in full), the half-inhibitory concentration (IC50) in the data set on A549 was 36.2 µM; in the data set with HeLa [1] it was 18.7 µM; in the data set on HepG2, 22.5 µM; in data set [2], 62.5 µM; in [3], 31 µM. In data set [4], this compound had a lipophilicity (logP) of 0.2.
